Read-outs that look alike come from different tables or passages of the source.
Experiments:
RL95-2 cells = assay: Inhibition of RL95-2 cell proliferation (CellTiter-Glo); assay type: cell-based; conditions: Homo sapiens; RL95-2 cells (MSI-H), 120 hours
Method: The following method was used to determine the effect of the compounds of the present disclosure on RL95-2 cell proliferation. RL95-2 cells (MSI-H cells) were purchased from Cell Resource Center of Shanghai Institutes for Biological Sciences, Chinese Academy of Sciences, and cultured in DMEM/F12 medium (Gibco, catalog No. A4192001) containing 10% fetal bovine serum, 100 U penicillin, and 100 µg/mL streptomycin. Cell viability was determined by CellTiter-Glo® Luminescent Cell Viability Assay kit (Promega, catalog No. G7573).
The experiment was performed according to the steps of the kit manual, which is briefly described as follows: test compounds were first dissolved in DMSO to prepare 10 mM stock solutions, and then diluted with medium to prepare test samples, with final compound concentrations ranging from 10000 nM to 1.52 nM. Cells in logarithmic growth phase were seeded into 96-well cell culture plates at a density of 500 cells per well and cultured overnight at 37 °C in a 5% CO2 incubator, and then test compounds were added and cultivation continued for 120 hours. After the cultivation was completed, 50 µL of CellTiter-Glo detection reagent was added to each well, shaken for 5 minutes, and then left to stand for 10 minutes. Luminescence values of each well were read on a microplate reader using Luminescence mode. The percentage inhibition at each concentration point was calculated by comparison with the control group (0.1% DMSO), and then IC50 values for the compounds for inhibition of cell proliferation were obtained using nonlinear regression analysis of compound concentration logarithm versus inhibition rate in GraphPad Prism 9 software, as shown in Table 3.
The IC50 value results of the compounds of the present disclosure are represented by A, wherein "A" indicates 1 nM < IC50 ≤ 100 nM. Table 3 IC50 data for inhibition of RL95-2 cell proliferation by the compounds of the present disclosure

recombinant human WRN = molecular target: T1, recombinant human WRN (Homo sapiens, UniProt Q14191); assay: Inhibition of WRN enzyme activity (ATPase), ADP-Glo Kinase Assay; assay type: biochemical; conditions: WRN protein 5 nM, Flap 0.1 nM, ATP 30 µM
T1 construct: purchased BPS 101264
In short: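 ATPase activity was measured by ADP-Glo luminescence after a 10-min room-temperature reaction with 30 µM ATP and 0.1 nM Flap26 oligonucleotide substrate. The 5 nM WRN had first been exposed to compound (0.004–1000 nM) for 15 min in pH 7.5 Tris buffer with 2 mM MgCl2. IC50 values came from log-concentration regression against the DMSO control.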

T1 sequence (Q14191 whole entry): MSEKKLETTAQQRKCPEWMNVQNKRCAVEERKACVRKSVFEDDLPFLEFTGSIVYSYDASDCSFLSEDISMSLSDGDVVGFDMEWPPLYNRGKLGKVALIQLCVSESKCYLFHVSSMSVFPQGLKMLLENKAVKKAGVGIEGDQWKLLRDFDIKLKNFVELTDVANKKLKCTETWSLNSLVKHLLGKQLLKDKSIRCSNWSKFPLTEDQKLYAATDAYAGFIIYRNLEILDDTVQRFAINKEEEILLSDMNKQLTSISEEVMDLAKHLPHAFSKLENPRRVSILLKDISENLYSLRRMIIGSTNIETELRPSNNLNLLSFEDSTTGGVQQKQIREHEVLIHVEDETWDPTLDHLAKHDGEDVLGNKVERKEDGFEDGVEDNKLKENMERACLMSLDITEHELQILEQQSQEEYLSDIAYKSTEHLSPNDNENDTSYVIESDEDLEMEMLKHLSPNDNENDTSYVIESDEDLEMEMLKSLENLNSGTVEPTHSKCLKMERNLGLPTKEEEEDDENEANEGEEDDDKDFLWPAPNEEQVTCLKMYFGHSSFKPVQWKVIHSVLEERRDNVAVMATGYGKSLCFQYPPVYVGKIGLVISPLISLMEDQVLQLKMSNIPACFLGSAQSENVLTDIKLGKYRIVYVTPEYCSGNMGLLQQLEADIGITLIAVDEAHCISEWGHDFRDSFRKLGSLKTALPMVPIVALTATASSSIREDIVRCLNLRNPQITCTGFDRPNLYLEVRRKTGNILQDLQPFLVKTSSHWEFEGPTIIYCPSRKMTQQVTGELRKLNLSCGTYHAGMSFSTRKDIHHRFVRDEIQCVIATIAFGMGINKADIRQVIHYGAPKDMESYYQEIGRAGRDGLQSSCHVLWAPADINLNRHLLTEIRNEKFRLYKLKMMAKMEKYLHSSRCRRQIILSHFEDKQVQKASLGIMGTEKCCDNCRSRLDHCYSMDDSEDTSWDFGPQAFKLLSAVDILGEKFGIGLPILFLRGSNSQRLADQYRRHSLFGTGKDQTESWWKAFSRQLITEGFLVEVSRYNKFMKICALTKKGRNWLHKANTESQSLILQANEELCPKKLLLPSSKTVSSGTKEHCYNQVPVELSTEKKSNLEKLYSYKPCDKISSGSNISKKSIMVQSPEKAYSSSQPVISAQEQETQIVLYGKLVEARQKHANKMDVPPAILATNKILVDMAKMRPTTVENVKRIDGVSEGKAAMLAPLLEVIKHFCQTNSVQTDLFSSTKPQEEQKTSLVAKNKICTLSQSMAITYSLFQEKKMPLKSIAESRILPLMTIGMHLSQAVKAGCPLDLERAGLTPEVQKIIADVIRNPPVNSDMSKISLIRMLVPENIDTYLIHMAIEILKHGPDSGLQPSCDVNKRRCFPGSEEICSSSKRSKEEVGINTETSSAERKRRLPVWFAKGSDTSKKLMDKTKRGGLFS

SMILES	IC50 (recombinant human WRN; read-out: IC50) [nM]	IC50 (RL95-2 cells) [nM]	IC50 (recombinant human WRN) [nM]
CCc1c(N2CCN(C(=O)c3ncnc(C)c3O)CC2)c(=O)n2nc(C3=CC4CC4C3)nc2n1CC(=O)Nc1ccc(S(F)(F)(F)(F)F)cc1Cl (stereo not drawn) [Example 167, 2-(2-(bicyclo[3.1.0]hex-2-en-3-yl)-5-ethyl-6-(4-(5-hydroxy-6-methylpyrimidine-4-carbonyl)piperazin-1-yl)-7-oxo-[1,2,4]triazolo[1,5-a]pyrimidin-4(7H)-yl)-N-(2-chloro-4-(pentafluoro-λ^6-sulfaneyl)phenyl)acetamide]	1 to 100	1 to 100	
CCc1c(N2CCN(C(=O)c3ncnc(C)c3O)CC2)c(=O)n2nc(-c3ccc4c(c3)CCO4)nc2n1CC(=O)Nc1ccc(SC(F)(F)F)cc1F [Example 89, 2-(2-(2,3-Dihydrobenzofuran-5-yl)-5-ethyl-6-(4-(5-hydroxy-6-methylpyrimidine-4-carbonyl)piperazin-1-yl)-7-oxo-[1,2,4]triazolo[1,5-a]pyrimidin-4(7H)-yl)-N-(2-fluoro-4-((trifluoromethyl)thio)phenyl)acetamide]	1 to 100	1 to 100	
CCc1c(N2CCN(C(=O)c3ncnc(C)c3O)CC2)c(=O)n2nc(-c3cc4ccccc4[nH]3)nc2n1CC(=O)Nc1ccc(C(F)(F)F)cc1Cl [Example 73, N-(2-Chloro-4-(trifluoromethyl)phenyl)-2-(5-ethyl-6-(4-(5-hydroxy-6-methylpyrimidine-4-carbonyl)piperazin-1-yl)-2-(1H-indol-2-yl)-7-oxo-[1,2,4]triazolo[1,5-a]pyrimidin-4(7H)-yl)acetamide]	1 to 100	1 to 100	
CCc1c(N2CCN(C(=O)c3ncnc(C)c3O)CC2)c(=O)n2nc(C3=CCCCOC3)nc2n1CC(=O)Nc1ccc(C(F)(F)F)cc1Cl [Example 62, N-(2-chloro-4-(trifluoromethyl)phenyl)-2-(5-ethyl-6-(4-(5-hydroxy-6-methylpyrimidine-4-carbonyl)piperazin-1-yl)-7-oxo-2-(2,5,6,7-tetrahydrooxepin-3-yl)-[1,2,4]triazolo[1,5-a]pyrimidin-4(7H) -yl)acetamide]	1 to 100	1 to 100	
CCc1c(N2CCN(C(=O)c3ncnc(C)c3O)CC2)c(=O)n2nc(N3CCCOCC3)nc2n1CC(=O)Nc1ccc(C(F)(F)F)cc1Cl [Example 1, N-(2-chloro-4-(trifluoromethyl)phenyl)-2-(5-ethyl-6-(4-(5-hydroxy-6-methylpyrimidine-4-carbonyl)piperazin-1-yl)-2-(1,4-oxazepan-4-yl)-7-oxo-[1,2,4]triazolo[1,5-a]pyrimidin-4(7H)-yl)acetamide]	1 to 100		
CCc1c(N2CCCN(C(=O)c3ncnc(C)c3O)CC2)c(=O)n2nc(C3=CCCCCC3)nc2n1CC(=O)Nc1ccc(S(F)(F)(F)(F)F)cc1 [Example 94, 2-(2-(cyclohept-1-en-1-yl)-5-ethyl-6-(4-(5-hydroxy-6-methylpyrimidine-4-carbonyl)-1,4-diazepan-1-yl)-7-oxo-[1,2,4]triazolo[1,5-a]pyrimidin-4(7H)-yl)-N-(4-(pentafluoro-λ^6-sulfaneyl)phenyl)a cetamide]	1 to 100		
CCc1c(N2CCN(C(=O)c3ncnc(C)c3O)CC2)c(=O)n2nc(-c3ccc4ccn(C)c4c3)nc2n1CC(=O)Nc1ccc(C(F)(F)F)cc1Cl [Example 128, N-(2-chloro-4-(trifluoromethyl)phenyl)-2-(5-ethyl-6-(4-(5-hydroxy-6-methylpyrimidine-4-carbonyl)piperazin-1-yl)-2-(1-methyl-1H-indol-6-yl)-7-oxo-[1,2,4]triazolo[1,5-a]pyrimidin-4(7H)-yl)ac etamide]	1 to 100		
CCc1c(N2CCN(C(=O)c3ncnc(C)c3O)CC2)c(=O)n2nc(-c3coc4ccccc34)nc2n1CC(=O)Nc1ccc(C(F)(F)F)cc1Cl [Example 35, 2-(2-(benzofuran-3-yl)-5-ethyl-6-(4-(5-hydroxy-6-methylpyrimidine-4-carbonyl)piperazin-1-yl)-7-oxo-[1,2,4]triazolo[1,5-a]pyrimidin-4(7H)-yl)-N-(2-chloro-4-(trifluoromethyl)phenyl) acetamide]			1 to 100
CCc1c(N2CCN(C(=O)c3ncccc3O)CC2)c(=O)n2nc(C3=CC4CC(=O)CC4C3)cc2n1CC(=O)Nc1ccc(C(F)(F)F)cc1Cl (stereo not drawn) [Example 56, N-(2-chloro-4-(trifluoromethyl)phenyl)-2-(5-ethyl-6-(4-(3-hydroxypicolinoyl)piperazin-1-yl)-7-oxo-2-(5-oxo-1,3a,4,5,6,6a-hexahydropentalen-2-yl)pyrazolo[1,5-a]pyrimidin-4(7H)-yl)acetamide]	1 to 100		
CCc1c(N2CCN(C(=O)c3ccncc3O)CC2)c(=O)n2nc(C3=CCCCCC3)nc2n1CC(=O)Nc1ccc(S(F)(F)(F)(F)F)cc1 [Example 25, 2-(2-(cyclohept-1-en-1-yl)-5-ethyl-6-(4-(3-hydroxyisonicotinoyl)piperazin-1-yl)-7-oxo-[1,2,4]triazolo[1,5-a]pyrimidin-4(7H)-yl)-N-(4-(pentafluoro-λ^6-sulfaneyl)phenyl)acetamide]	1 to 100		

The next lines start with results.

IC50 (recombinant human WRN; read-out: IC50) [nM]	SMILES	IC50 (RL95-2 cells) [nM]	IC50 (recombinant human WRN) [nM]
< 1	CCc1c(N2CCN(C(=O)c3ncccc3O)CC2)c(=O)n2nc(C3=CC4CC(=O)CC4C3)nc2n1CC(=O)Nc1ccc(S(F)(F)(F)(F)F)cc1 (stereo not drawn) [Example 71, 2-(5-ethyl-6-(4-(3-hydroxypicolinoyl)piperazin-1-yl)-7-oxo-2-(5-oxo-1,3a,4,5,6,6a-hexahydropentalen-2-yl)-[1,2,4]triazolo[1,5-a]pyrimidin-4(7H)-yl)-N-(4-(pentafluoro-λ^6-sulfaneyl)phenyl)acetamide]	1 to 100	
< 1	CCc1c(N2CCN(C(=O)c3ncnc(C)c3O)CC2)c(=O)n2nc(-c3cccc4ccoc34)nc2n1CC(=O)Nc1ccc(C(F)(F)F)cc1Cl [Example 69, 2-(2-(benzofuran-7-yl)-5-ethyl-6-(4-(5-hydroxy-6-methylpyrimidine-4-carbonyl)piperazin-1-yl)-7-oxo-[1,2,4]triazolo[1,5-a]pyrimidin-4(7H)-yl)-N-(2-chloro-4-(trifluoromethyl)phenyl)acetamide]	1 to 100	
1 to 100	CCc1c(N2CCN(C(=O)c3ncnc(C)c3O)CC2)c(=O)n2nc(-c3cc4ccccc4n3C)nc2n1CC(=O)Nc1ccc(C(F)(F)F)cc1Cl [Example 74, N-(2-chloro-4-(trifluoromethyl)phenyl)-2-(5-ethyl-6-(4-(5-hydroxy-6-methylpyrimidine-4-carbonyl)piperazin-1-yl)-2-(1-methyl-1H-indol-2-yl)-7-oxo-[1,2,4]triazolo[1,5-a]pyrimidin-4(7H)-yl)ac etamide]	1 to 100	
1 to 100	CCc1c(N2CCN(C(=O)c3ncnc(C)c3O)CC2)c(=O)n2nc(-c3ccc4ccoc4c3)nc2n1CC(=O)Nc1ccc(S(F)(F)(F)(F)F)cc1 [Example 77, 2-(2-(benzofuran-6-yl)-5-ethyl-6-(4-(5-hydroxy-6-methylpyrimidine-4-carbonyl)piperazin-1-yl)-7-oxo-[1,2,4]triazolo[1,5-a]pyrimidin-4(7H)-yl)-N-(4-(pentafluoro-λ^6-sulfaneyl)phenyl)acetamide]	1 to 100	
< 1	CCc1c(N2CCN(C(=O)c3ncnc(C)c3O)CC2)c(=O)n2nc(C3=CC4CC4C3)nc2n1CC(=O)Nc1ccc(S(F)(F)(F)(F)F)cc1 (stereo not drawn) [Example 66, 2-(2-(Bicyclo[3.1.0]hex-2-en-3-yl)-5-ethyl-6-(4-(5-hydroxy-6-methylpyrimidine-4-carbonyl)piperazin-1-yl)-7-oxo-[1,2,4]triazolo[1,5-a]pyrimidin-4(7H)-yl)-N-(4-(pentafluoro-λ^6-thiol)phenyl)acetamide]	1 to 100	
